Measurements from patent publication US20240327320A1, “NOVEL ROUTES OF CHEMICAL SYNTHESIS OF 20S(OH)D3, 20S,25(OH)2D3, 20S,23S(OH)2D3, AND 20S,23R(OH)2D3 AND THEIR MODIFICATION OF THE IMMUNE ACTIVITY OF PBMCS” (United State Government as represen ted by the Department …, priority 2023, published 2024).

How the values were obtained:
Mouse CYP27B1 = target: T1, Mouse CYP27B1 (Mus musculus, UniProt O35084); experiment: CYP27B1 activity on secosteroids in phospholipid vesicles (1α-hydroxylation); type: in vitro ADME; settings: for 1α-hydroxylase activity: 0.025 mol secosteroid/mol phospholipid, CYP27B1 0.2 μM, mean±SD, n=3; for rate / efficiency of 1α-hydroxylation by CYP27B1, in words: phospholipid vesicles, mouse CYP27B1
T1 construct: made in house; host or cells: E. coli
T1 sequence (O35084 1-507): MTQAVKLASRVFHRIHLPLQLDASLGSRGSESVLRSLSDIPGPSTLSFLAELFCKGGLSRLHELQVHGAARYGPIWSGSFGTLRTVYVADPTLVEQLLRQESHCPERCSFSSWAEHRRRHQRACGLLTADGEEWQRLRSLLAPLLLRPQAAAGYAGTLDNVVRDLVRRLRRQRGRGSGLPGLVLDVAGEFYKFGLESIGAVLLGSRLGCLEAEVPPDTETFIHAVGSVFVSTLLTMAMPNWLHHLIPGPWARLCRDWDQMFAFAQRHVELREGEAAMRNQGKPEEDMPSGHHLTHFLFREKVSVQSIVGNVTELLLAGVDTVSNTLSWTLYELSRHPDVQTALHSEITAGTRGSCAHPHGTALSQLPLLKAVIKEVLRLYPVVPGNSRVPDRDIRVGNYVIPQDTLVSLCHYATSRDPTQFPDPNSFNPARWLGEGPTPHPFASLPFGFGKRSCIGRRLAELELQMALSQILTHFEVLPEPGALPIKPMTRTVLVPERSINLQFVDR
Procedure: Mouse CYP27B1 was expressed in E. coli and purified (Tang E K, et. al., (2010) Drug Metabolism and Disposition, 38(9) 1553-9). CYP27B1 activity was measured on substrate incorporated into the membrane of phospholipid vesicles as described previously. Briefly, phospholipid vesicles were prepared by sonication of dioleoyl phosphatidylcholine, cardiolipin and secosteroid. Vesicles (510 μM phospholipid) were then incubated at 37° C. with CYP27B1 (0.2 μM) in buffer comprising 20 mM Hepes, pH 7.4, 100 mM NaCl, 0.1 mM EDTA, 0.1 mM and dithiothreitol, adrenodoxin (15 μM), adrenodoxin reductase (0.4 μM), glucose-6-phosphate (2 mM), glucose-6-phosphate dehydrogenase (2 U/mL) and NAPDH (50 μM) in a volume of 0.5 ml. After reaction (5 or 20 min), the incubation mixture was extracted 3-times with 2.5 ml dichloromethane, extracts combined, dried under N2 gas and dissolved in 64% methanol. Samples were analysed by reverse phase HPLC on a Grace Alltima column (25×0.46 cm) using a gradient of 64 to 100% methanol for 15 min followed by 100% methanol for 30 min, at a flow rate of 0.5 ml/min. Metabolites were detected with a UV detector at 265 nm.
All four chemically synthesized secosteroids were converted to their expected 1α-hydroxy derivatives by CYP27B1, and identified on the basis of previous studies on the enzymatically and/or chemically derived substrates (Li W, et. al., (2010) Steroids 75(12) 926-35, Tang E K, et. al., (2013) Drug metabolism and disposition: the biological fate of chemicals 41(5) 1112-24, Lin Z, et. al., (2016) J Med Chem 59(10) 5102-8, Tang E K, et. al., (2010) Drug metabolism and disposition: the biological fate of chemicals 38(9) 1553-9). Secosteroids were incorporated into phospholipid vesicles at a ratio of 0.025 mol secosteroid/mol phospholipid and incubated with mouse CYP27B1 (0.2 μM) for 20 min for all substrates except 20S,25(OH)2D3 which was incubated for 5 min. Extracted samples were analyzed by reverse-phase HPLC. Data are mean±SD, n=3. […] In summary, the efficiency of metabolism of D3 derivatives by CYP27B1 is as follows: 20S,25(OH)2D3>>20S,23S(OH)2D3>20S(OH)D3=20S,23R(OH)2D3.

[1] = system: CYP24A1 (downstream target of the activated VDR); experiment: CYP24A1 expression, qPCR of downstream enzymes; type: cell-based; settings: FIG. 8C
Procedure: RNA isolation and reverse transcription were performed as described previously (Slominski A T, et. al., (2021) Sci Rep 11(1) 8002). Quantitative RT-PCR was carried out using Sybr green Master Mix (Thermo Scientific, Waltham, MA), in triplicates as previously described (Slominski A T, et. al., (2021) Sci Rep 11(1) 8002; Janjetovic Z, et. al., (2014) J Pineal Res 57(1) 90-102). Human epidermal keratinocytes (HEKn) isolated from foreskin of white neonates were cultured until the third passage before treatment as described in the literature (Chaiprasongsuk A, et. al., (2019) Redox Biol 24 101206; Janjetovic Z, et. al., (2009) PloS one 4(6) e5988). Cells were treated with vitamin D3 derivatives for 8 h or 24 h and harvested for RNA isolation. Approximately 300 ng of RNA was used for cDNA synthesis and an equal amount of cDNA was used for PCR reactions. Cyclophilin B or GAPDH was used as an internal control. Primers sequences are listed in (Chaiprasongsuk A, et. al., (2020) Free Radic Biol Med 155 87-9845, Slominski A T, et. al., (2017) Sci Rep 7(1) 11434). Reactions were done in triplicate.
To better define the properties of the newly synthesized secosteroids, their activities on the VDR, AhR and LXR were tested by performing functional assays which were further validated by qPCR of downstream enzymes (FIGS. 8A-F) and molecular modeling (FIG. 9-13). Binding affinities of top-scored docking complexes of vitamin D3 hydroxy derivatives with VDR, AhR, LXRs (LXRα, LXRβ) and RORs (RORα, RORγ) from molecular docking are presented in FIG. 9, known ligands for each receptor were used as controls.

For C=C1CC[C@H](O)C/C1=C/C=C1\CCC[C@@]2(C)[C@H]1CC[C@@H]2[C@@](C)(O)C[C@H](O)CC(C)C [20S,23R(OH)2D3, (20S,23R)-20,23-Dihydroxyvitamin D3], the 1α-hydroxylase activity (Mouse CYP27B1; incubated 20 min) was 0.117 ± 0.027 mol product/min/mol CYP27B1 and the CYP24A1 expression [1] was “significantly less expression than 1α,25(OH)2D3”.

With C=C1CC[C@H](O)C/C1=C/C=C1\CCC[C@@]2(C)[C@H]1CC[C@@H]2[C@@](C)(O)CCCC(C)(C)O [20S,25(OH)2D3, (20S)-20,25-Dihydroxyvitamin D3] the 1α-hydroxylase activity (Mouse CYP27B1; incubated 5 min) was 7.98 ± 0.24 mol product/min/mol CYP27B1, the “rate / efficiency of 1α-hydroxylation by CYP27B1, in words” value (from here on “rate / efficiency of 1α-hydroxylation”) (Mouse CYP27B1) was “high rate of 1α-hydroxylation” and the CYP24A1 expression [1] was “much greater stimulation of CYP24A1 expression than 20S(OH)D3”.

With C=C1CC[C@H](O)C/C1=C/C=C1\CCC[C@@]2(C)[C@H]1CC[C@@H]2[C@@](C)(O)C[C@@H](O)CC(C)C [20S,23S(OH)2D3, (20S,23S)-20,23-Dihydroxyvitamin D3] the 1α-hydroxylase activity (Mouse CYP27B1; incubated 20 min) was 0.258 ± 0.020 mol product/min/mol CYP27B1, the “rate / efficiency of 1α-hydroxylation” value (Mouse CYP27B1) was “metabolized approximately twice as fast as the non-natural 20S,23R-isomer” and the CYP24A1 expression [1] was “significantly less expression than 1α,25(OH)2D3”.

C=C1CC[C@H](O)C/C1=C/C=C1\CCC[C@@]2(C)[C@H]1CC[C@@H]2[C@@](C)(O)CCCC(C)C [20S(OH)D3, (20S)-20-Hydroxyvitamin D3] was tested, and the 1α-hydroxylase activity (Mouse CYP27B1; incubated 20 min) was 0.135 ± 0.005 mol product/min/mol CYP27B1 and the “rate / efficiency of 1α-hydroxylation” value (Mouse CYP27B1) was “relatively poorer substrate for CYP27B1”.
